Key:
[1] = system: Bone-marrow-derived macrophages; test: Markers of 'regulatory' macrophages (qPCR); type: cell-based, mouse; details: 3 μM bosutinib or 0.3 μM dasatinib 1 h, then LPS
Description: mRNA was extracted from cells using the MicroElute Total RNA kit following the manufacturers’ instructions (Omega Bio-Tek). cDNA was generated from 0.5 μg of total RNA using the iScript cDNA synthesis kit and quantified by quantitative real-time PCR (qPCR) using the SsoFast EvaGreen Supermix on a CFX384 real-time system (Bio-Rad Laboratories). The relative expression of each gene was calculated from CT values using the Pfaffl method and was normalized against the mRNA levels of housekeeping genes including 18S RNA and GAPDH. Results are reported relative to untreated control cells, which were set to 1.

BRSK1 = target: T1, BRSK1 (Homo sapiens, UniProt Q8TDC3); test: Kinase profiling; type: biochemical
T1 sequence (Q8TDC3 1-778): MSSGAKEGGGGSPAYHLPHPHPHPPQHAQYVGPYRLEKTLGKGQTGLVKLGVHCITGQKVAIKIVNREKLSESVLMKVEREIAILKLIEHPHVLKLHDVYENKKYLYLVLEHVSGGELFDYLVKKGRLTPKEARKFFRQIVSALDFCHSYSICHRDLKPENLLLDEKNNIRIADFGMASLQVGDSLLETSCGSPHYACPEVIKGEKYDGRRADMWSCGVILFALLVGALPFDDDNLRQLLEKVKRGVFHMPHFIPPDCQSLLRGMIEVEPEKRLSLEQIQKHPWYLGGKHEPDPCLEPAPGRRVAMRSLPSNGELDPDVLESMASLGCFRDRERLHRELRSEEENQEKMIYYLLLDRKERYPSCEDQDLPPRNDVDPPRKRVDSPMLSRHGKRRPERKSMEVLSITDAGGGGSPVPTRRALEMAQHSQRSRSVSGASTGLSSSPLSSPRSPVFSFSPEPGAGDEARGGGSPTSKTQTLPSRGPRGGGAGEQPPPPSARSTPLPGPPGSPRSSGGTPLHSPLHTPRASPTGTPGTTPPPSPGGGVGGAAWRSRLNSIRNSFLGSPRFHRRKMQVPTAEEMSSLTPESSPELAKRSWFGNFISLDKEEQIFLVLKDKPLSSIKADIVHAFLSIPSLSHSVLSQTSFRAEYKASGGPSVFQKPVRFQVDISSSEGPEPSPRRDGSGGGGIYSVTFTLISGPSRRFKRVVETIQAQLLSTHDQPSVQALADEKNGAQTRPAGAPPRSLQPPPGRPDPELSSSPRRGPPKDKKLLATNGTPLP

DYRK3 = target: T2, DYRK3 (Homo sapiens, UniProt O43781); test: Kinase profiling; type: biochemical
T2 sequence (O43781 1-588): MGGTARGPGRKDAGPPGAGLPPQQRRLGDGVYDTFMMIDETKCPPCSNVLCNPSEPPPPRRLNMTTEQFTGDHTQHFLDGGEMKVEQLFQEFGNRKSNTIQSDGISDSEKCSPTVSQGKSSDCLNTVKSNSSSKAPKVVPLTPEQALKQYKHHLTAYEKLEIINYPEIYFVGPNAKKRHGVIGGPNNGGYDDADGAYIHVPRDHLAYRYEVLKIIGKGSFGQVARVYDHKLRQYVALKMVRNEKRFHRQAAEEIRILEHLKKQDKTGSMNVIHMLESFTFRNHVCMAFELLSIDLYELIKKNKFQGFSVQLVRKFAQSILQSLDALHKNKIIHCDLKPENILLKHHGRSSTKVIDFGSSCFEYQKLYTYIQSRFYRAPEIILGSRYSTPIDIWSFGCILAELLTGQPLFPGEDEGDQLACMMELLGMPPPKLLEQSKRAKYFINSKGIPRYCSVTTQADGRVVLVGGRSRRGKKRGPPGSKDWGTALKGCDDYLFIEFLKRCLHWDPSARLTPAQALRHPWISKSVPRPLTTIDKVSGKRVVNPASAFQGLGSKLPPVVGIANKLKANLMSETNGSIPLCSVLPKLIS

MARK1 = MARK1 (Homo sapiens, UniProt Q9P0L2); test: Kinase profiling; type: biochemical
Sequence of MARK1 (Q9P0L2 whole entry): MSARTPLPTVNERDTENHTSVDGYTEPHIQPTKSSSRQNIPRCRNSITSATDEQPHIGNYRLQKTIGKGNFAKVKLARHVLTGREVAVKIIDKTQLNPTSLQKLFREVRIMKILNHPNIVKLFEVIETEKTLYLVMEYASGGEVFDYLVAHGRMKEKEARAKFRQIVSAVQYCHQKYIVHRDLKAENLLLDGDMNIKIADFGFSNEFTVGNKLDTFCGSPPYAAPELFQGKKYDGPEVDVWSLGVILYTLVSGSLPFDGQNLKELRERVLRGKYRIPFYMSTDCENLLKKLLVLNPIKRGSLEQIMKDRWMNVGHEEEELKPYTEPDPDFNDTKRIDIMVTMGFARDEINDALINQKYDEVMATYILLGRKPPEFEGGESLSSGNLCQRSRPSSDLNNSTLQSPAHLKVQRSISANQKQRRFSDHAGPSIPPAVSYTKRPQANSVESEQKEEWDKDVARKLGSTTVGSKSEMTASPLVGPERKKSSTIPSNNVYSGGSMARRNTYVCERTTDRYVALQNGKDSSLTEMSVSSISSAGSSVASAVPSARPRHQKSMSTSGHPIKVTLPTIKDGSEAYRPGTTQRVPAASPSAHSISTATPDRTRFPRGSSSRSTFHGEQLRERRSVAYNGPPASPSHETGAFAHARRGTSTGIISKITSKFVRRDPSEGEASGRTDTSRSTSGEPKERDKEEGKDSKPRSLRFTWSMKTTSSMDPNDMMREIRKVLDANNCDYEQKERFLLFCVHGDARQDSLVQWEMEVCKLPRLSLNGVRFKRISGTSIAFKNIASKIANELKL

MLK1 = MLK1 (Homo sapiens, UniProt P80192); test: Kinase profiling; type: biochemical
Sequence of MLK1 (P80192 whole entry): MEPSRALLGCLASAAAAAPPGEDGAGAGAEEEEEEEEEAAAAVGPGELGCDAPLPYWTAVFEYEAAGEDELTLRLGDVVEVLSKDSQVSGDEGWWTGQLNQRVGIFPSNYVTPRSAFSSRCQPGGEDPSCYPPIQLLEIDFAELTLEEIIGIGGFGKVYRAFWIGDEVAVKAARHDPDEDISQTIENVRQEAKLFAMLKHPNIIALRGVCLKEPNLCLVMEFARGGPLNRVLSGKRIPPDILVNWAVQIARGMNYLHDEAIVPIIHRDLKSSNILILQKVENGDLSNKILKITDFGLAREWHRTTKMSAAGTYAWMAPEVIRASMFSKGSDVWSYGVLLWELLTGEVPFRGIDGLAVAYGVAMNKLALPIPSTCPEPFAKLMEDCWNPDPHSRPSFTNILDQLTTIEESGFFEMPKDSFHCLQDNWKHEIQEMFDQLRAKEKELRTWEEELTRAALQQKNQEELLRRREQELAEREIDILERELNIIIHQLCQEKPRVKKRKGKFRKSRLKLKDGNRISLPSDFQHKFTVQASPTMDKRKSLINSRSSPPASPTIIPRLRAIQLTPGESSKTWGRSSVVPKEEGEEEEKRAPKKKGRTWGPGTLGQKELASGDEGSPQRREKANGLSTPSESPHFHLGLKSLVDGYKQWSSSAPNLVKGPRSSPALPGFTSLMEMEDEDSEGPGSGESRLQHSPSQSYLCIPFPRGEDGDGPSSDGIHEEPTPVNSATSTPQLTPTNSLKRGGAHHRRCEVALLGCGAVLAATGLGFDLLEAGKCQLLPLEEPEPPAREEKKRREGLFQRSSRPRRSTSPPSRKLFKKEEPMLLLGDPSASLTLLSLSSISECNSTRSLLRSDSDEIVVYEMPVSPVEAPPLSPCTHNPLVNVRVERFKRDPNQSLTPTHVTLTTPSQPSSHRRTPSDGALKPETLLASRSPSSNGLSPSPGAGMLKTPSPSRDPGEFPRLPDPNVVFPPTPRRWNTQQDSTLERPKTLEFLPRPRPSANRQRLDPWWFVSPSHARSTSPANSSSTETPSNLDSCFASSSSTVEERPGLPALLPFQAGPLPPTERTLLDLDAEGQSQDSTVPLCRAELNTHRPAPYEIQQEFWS

SGK1 = target: T3, SGK1 (Homo sapiens, UniProt O00141); test: Kinase profiling; type: biochemical
T3 sequence (O00141 1-431): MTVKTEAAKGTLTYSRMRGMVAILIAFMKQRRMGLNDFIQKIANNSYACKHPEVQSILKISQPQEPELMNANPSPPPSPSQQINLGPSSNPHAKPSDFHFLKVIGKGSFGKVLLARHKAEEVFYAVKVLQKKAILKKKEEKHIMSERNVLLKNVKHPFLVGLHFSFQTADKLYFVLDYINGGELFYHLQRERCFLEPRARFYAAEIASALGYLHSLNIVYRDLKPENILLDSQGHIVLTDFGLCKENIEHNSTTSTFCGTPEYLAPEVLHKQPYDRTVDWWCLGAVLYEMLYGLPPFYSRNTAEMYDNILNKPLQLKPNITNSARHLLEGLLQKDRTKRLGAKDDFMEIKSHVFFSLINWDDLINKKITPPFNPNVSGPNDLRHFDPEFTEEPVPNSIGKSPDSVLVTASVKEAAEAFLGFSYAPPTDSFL

TTBK2 = TTBK2 (Homo sapiens, UniProt Q6IQ55); test: Kinase profiling; type: biochemical
Sequence of TTBK2 (Q6IQ55 whole entry): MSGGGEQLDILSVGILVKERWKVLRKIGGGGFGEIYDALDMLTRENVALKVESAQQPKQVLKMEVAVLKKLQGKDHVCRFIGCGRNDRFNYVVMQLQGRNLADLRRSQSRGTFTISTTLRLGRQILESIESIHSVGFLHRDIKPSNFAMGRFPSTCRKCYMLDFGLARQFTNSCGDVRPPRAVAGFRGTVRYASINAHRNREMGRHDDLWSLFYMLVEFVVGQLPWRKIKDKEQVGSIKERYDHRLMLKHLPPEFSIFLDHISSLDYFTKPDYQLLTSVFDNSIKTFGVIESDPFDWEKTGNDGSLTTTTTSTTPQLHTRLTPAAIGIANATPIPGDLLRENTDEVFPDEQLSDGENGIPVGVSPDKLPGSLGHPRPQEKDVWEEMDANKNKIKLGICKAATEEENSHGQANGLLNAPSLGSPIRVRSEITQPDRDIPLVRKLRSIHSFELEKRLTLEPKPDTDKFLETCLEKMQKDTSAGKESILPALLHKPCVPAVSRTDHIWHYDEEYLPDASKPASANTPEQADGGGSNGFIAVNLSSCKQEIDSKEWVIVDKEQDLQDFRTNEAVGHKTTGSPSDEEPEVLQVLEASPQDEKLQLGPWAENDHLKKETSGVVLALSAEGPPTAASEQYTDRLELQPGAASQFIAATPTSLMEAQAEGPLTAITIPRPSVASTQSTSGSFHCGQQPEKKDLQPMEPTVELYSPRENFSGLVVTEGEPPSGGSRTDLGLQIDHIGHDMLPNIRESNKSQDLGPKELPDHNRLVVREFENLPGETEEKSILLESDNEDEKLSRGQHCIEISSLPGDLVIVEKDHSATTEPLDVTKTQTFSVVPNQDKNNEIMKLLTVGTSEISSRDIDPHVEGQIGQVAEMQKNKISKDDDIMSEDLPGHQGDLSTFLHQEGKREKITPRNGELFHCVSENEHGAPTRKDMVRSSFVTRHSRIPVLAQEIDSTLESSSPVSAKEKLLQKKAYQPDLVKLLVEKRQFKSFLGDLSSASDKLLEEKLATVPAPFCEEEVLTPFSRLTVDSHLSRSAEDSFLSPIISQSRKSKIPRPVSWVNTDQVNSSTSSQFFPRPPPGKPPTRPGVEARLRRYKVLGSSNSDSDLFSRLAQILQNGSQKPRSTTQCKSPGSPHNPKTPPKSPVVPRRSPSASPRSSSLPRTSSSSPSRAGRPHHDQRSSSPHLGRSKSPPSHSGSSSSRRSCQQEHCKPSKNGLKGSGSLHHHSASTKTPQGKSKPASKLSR

Row | SMILES | Expression of SPHK1, LIGHT and arginase 1 [1] | remaining activity at 0.1 µM (BRSK1) [%] | remaining activity at 1 µM (BRSK1) [%] | remaining activity at 0.1 µM (DYRK3) [%] | remaining activity at 1 µM (DYRK3) [%] | remaining activity at 0.1 µM (MARK1) [%] | remaining activity at 1 µM (MARK1) [%] | remaining activity at 0.1 µM (MLK1) [%] | remaining activity at 1 µM (MLK1) [%] | remaining activity at 0.1 µM (SGK1) [%] | remaining activity at 1 µM (SGK1) [%] | remaining activity at 0.1 µM (TTBK2) [%] | remaining activity at 1 µM (TTBK2) [%]
1 | COc1cc(Nc2c(C#N)cnc3cc(OCCCN4CCN(C)CC4)c(OC)cc23)c(Cl)cc1Cl [Bosutinib, bosutinib] | elevated | 101 ± 1 | 112 ± 5 | 85 ± 11 | 90 ± 16 | 84 ± 5 | 76 ± 4 | 52 ± 9 | 18 ± 4 | 98 ± 20 | 100 ± 2 | 87 ± 6 | 92 ± 6
2 | Cc1nc(Nc2ncc(C(=O)Nc3c(C)cccc3Cl)s2)cc(N2CCN(CCO)CC2)n1 [Dasatinib] | elevated | 126 | 123 ± 1 | 98 ± 7 | 104 ± 9 | 115 ± 3 | 127 ± 3 | 72 ± 1 | 41 ± 2 | 87 ± 11 | 96 ± 7 | 110 ± 5 | 117 ± 7

Source: PMC4286194 (Biochemical Journal, 2015)
